# Results taken from patent US7507739B2, “6-[(substituted)phenyl]triazolopyrimidines as anticancer agents” (Wyeth, priority 2003, dated 2009).
# Where two headings read alike, the source gives them in different places.
# Legend:
# COLO 205 cells = assay: MTS cytotoxicity test with COLO 205 cells; format: cell-based, human; details: 3 days
# Method in brief: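 COLO 205 human colon carcinoma cells, 1000 per well, exposed 3 days at 37° C to nine 2-fold dilutions, typical final top concentration 5 μM. MTS absorbance normalized to time-0 plate; IC50 is concentration giving colour yield midway between untreated and fully killed controls.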
# KB-8-5 cells = assay: MTS cytotoxicity test with KB-8-5 cells (moderate P-glycoprotein); format: cell-based, human; details: for IC50: Homo sapiens, read-out: IC50 KB 8.5; for Ratio 8.5/KB: IC50 on KB 8.5 cells/IC50 on KB cells
# From the text: (§1) Human cancer cell lines, unless otherwise noted, are obtained from the American Type Culture Collection (Rockville, Md.). The following drug-sensitive parental cell lines, and their derived drug-resistant counterparts, are obtained from the originators as listed: (a) S1 (parental line from a subclone of human colon carcinoma line LS174T) and derived S1-M1-3.2 (herein called S1-M1) which expresses the MXR drug transporter protein, are provided by Dr. L. Greenberger, Wyeth Research (Rabindran, S. K., He, H., Singh, M., Brown, E., Collins, K. I., Annable, T., and Greenberger, L. M. Reversal of a novel multidrug resistance mechanism in human colon carcinoma cells by fumitremorgin C. Cancer Res., 58:5850-5858,1998); (b) parental HL-60 human promyelocytic leukemia line and derived HL-60/ADR, which expresses the MRP1 drug transporter protein, are provided by Dr. M. Center, University of Kansas (McGrath, T., and Center, M. S. Adriamycin resistance in HL60 cells in the absence of detectable P-glycoprotein. Biochem. Biophys. […] J. Biol. Chem., 261: 7762-7770,1986) via Dr. L. Greenberger, Wyeth Research.
# (§2) The assay, which is sold in kit form by Promega (Madison, Wis.; CellTiter 96 AQueous Non-Radioactive Cell Proliferation Assay), is based on the conversion by viable cells, but not by dead cells, of the tetrazolium salt, MTS (3-(4,5-dimethylthiazol-2-yl)-5-(3-carboxymethoxyphenyl)-2-(4-sulphophenyl)-2H-tetrazolium, inner salt), into a water-soluble colored formazan which is detected by spectrophotometry. Compounds are tested at nine concentrations, in order to determine IC50 values. For the test procedure, cells are harvested by trypsinization (or, in the case of non-adherent cells, by simple resuspension), washed, counted and distributed to wells of 96-well flat-bottom microtiter plates at 1000 cells per well in 200 μL of medium. In addition, one row of wells on a separate plate received cells as above (“time 0” plate). All plates are incubated at 37° in humidified 5% CO2 in air for about 24 hr.
# (§3) On day 2, compounds for test are diluted and added to wells. Compounds are dissolved in DMSO at 10 mg/mL. For each compound, nine serial 2-fold dilutions are prepared in DMSO. Ten μL of each dilution in DMSO is transferred to 100 μL of medium, mixed well, and then 5 μL of this dilution is transferred in quadruplicate to wells containing cells. […] Plates are returned to the incubator for three days. At the time of drug addition to the experimental plates, the MTS assay is run on the “time 0” plate. This produced the “time 0 MTS value” which is related to the number of viable cells per well at the time of drug addition.
# (§4) After three days of culture with test compounds (day 5 overall), the MTS assay is done on all wells of the experimental plates. The absorbance values of the quadruplicate sample wells are averaged and divided by the average of the “time 0” values. […] The nine values for each compound are plotted against concentration, and the concentration that produced a relative color yield half way between the maximum and minimum is taken as the IC50 value.
# The KB lines express different amounts of the P-glycoprotein (MDR1) membrane pump which produces resistance to the action of many cytotoxic compounds, including paclitaxel and vincristine. The parental KB line expresses no P-glycoprotein, KB-8-5 expresses moderate levels of the protein, and KB-V1 expresses very high levels.
# S1 cells = assay: MTS cytotoxicity test with S1 cells; format: cell-based; details: Homo sapiens
# From the text: as §1, §2, §3, §4
# (§5) S1-M1 cells overexpress the MXR transporter which mediates resistance to some chemotherapeutics (Gottesman, M. M., Fojo, T., and Bates, S. E. Miltidrug resistance in cancer: role of ATP-dependent transporters. Nature Rev. Cancer, 2: 48-58, 2002). The IC50 values of representative examples of this invention, as well as reference compounds, on S1-M1 are compared to values on the sensitive parental S1 line.
# S1-M1 cells = assay: MTS cytotoxicity test with S1-M1 cells (MXR); format: cell-based, human; details: for IC50: Homo sapiens, read-out: IC50 S1-M1; for Ratio: IC50 on S1-M1 cells/IC50 on S1 cells
# From the text: as §1, §2, §3, §4, §5
Structure (SMILES),IC50 (COLO 205 cells) [nM],"IC50 (KB-8-5 cells; KB-8-5 cells, MTS) [nM]",Ratio 8.5/KB (KB-8-5 cells),IC50 (S1 cells) [nM],"IC50 (S1-M1 cells; S1-M1 cells, MTS) [nM]",Ratio (S1-M1 cells),"IC50 (COLO 205 cells; Homo sapiens, COLO 205, 72 h) [nM]",IC50 (KB-8-5 cells) [nM],IC50 (S1-M1 cells) [nM]
"CNCCCOc1cc(F)c(-c2c(Cl)nc3ncnn3c2NCC(F)(F)F)c(F)c1.Cl [Example 3a, 5-Chloro-6-{2,6-difluoro-4-[3-(methylamino)propoxy]phenyl}-N-(2,2,2-trifluoroethyl)[1,2,4]triazolo[1,5-a]pyrimidin-7-amine hydrogen chloride Salt]",29,69,3.8,61,71,1.2,–,–,–
"CC[C@]1(O)C[C@H]2CN(CCc3c([nH]c4ccccc34)[C@@](C(=O)OC)(c3cc4c(cc3OC)N(C=O)[C@H]3[C@@](O)(C(=O)OC)[C@H](OC(C)=O)[C@]5(CC)C=CCN6CC[C@]43[C@@H]65)C2)C1 [Vincristine, reference compound]",–,72,11,5.6,4.6,0.82,2.6,–,–
"CC(=O)O[C@H]1C(=O)[C@@]2(C)[C@H]([C@H](OC(=O)c3ccccc3)[C@]3(O)C[C@H](OC(=O)[C@H](O)[C@@H](NC(=O)c4ccccc4)c4ccccc4)C(C)=C1C3(C)C)[C@]1(OC(C)=O)CO[C@@H]1C[C@@H]2O [Paclitaxel, reference compound]",–,56,19,8.1,4.4,0.54,3.3,–,–
"CN(C)CCCOc1cc(F)c(-c2c(Cl)nc3ncnn3c2NCC(F)(F)F)c(F)c1.Cl [Example 4a, 5-Chloro-6-{4-[3-(dimethylamino)propoxy]-2,6-difluorophenyl}-N-(2,2,2-trifluoroethyl)[1,2,4]triazolo[1,5-a]pyrimidin-7-amine Hydrogen chloride Salt]",–,58,–,72,73,1.0,53,–,–
"C[C@H](Nc1c(-c2c(F)cc(OCCCN(C)C)cc2F)c(Br)nc2ncnn12)C(F)(F)F [Example 25, 5-Bromo-6-{4-[3-(dimethylamino)propoxy]-2,6-difluorophenyl}-N-[(1S)-2,2,2-trifluoro-1-methylethyl][1,2,4]triazolo[1,5-a]pyrimidin-7-amine]",–,67,–,106,84,0.80,96,–,–
"CNCCCOc1cc(F)c(-c2c(Cl)nc3ncnn3c2C2CCCCCC2)c(F)c1.O=C(O)C(F)(F)F [Example 32, 3-[4-(5-Chloro-7-cycloheptyl[1,2,4]triazolo[1,5-a]pyrimidin-6-yl)-3,5-difluorophenoxy]-N-methylpropan-1-amine trifluoroacetic acid salt]",–,15,–,11,9,0.80,6.6,–,–
"C[C@H](Nc1c(-c2c(F)cc(OCCCN(C)C)cc2F)c(Cl)nc2ncnn12)C(F)(F)F.Cl [Example 1a, 5-chloro-6-{4-[3-(dimethylamino)propoxy]-2,6-difluorophenyl}-N-[(1S)-2,2,2-trifluoro-1-methylethyl][1,2,4]triazolo[1,5-a]pyrimidin-7-amine hydrogen chloride Salt]",–,62,2.2,73,75,1.0,56,–,–
"CNCCCOc1cc(F)c(-c2c(Cl)nc3ncnn3c2N[C@@H](C)C(F)(F)F)c(F)c1.Cl [Example 2a, 5-Chloro-6-{2,6-difluoro-4-[3-(methylamino)propoxy]phenyl}-N-[(1S)-2,2,2-trifluoro-1-methylethyl][1,2,4]triazolo[1,5-a]pyrimidin-7-amine hydrogen chloride]",31,–,–,70,–,1.0,–,64,69
"OCCCOc1cc(F)c(-c2c(Cl)nc3ncnn3c2C2CCCCCC2)c(F)c1 [Example 30, 3-[4-(5-Chloro-7-cycloheptyl[1,2,4]triazolo[1,5-a]pyrimidin-6-yl)-3,5-difluorophenoxy]propan-1-ol]",–,127,–,66,78,1.2,30,–,–
"C[C@H](Nc1c(-c2c(F)cc(OCCCO)cc2F)c(Cl)nc2ncnn12)C(F)(F)F [Example 20, 3-[4-(5-Chloro-7-{[(1S)-2,2,2-trifluoro-1-methylethyl]amino}[1,2,4]triazolo[1,5-a]pyrimidin-6-yl)-3,5-difluorophenoxy]propan-1-ol]",–,66,–,85,91,1.1,67,–,–
